Assay results taken from US5140044A, “UCN-1028D derivatives” (Kyowa Hakko Kogyo Co., Ltd., priority 1989, dated 1992).
Converted amounts (≈) assume the structure as drawn. Like-named read-outs stand apart in the source and are kept apart here.

Legend:
Protein Kinase C = experiment: Protein kinase C inhibitory activity (method of Kikkawa et al.; crude enzyme from rat brain, Histone Type II S phosphorylation); format: biochemical; conditions: crude enzyme partially purified from rat brain; [γ-32P]ATP, 30° C., 3 minutes, pH 7.5
Description: Protein kinase C inhibitory activity
The protein kinase C inhibitory activity was measured by the method of Kikkawa, et al. [Journal of Biological Chemistry, 257, 13341 (1982)].
That is, 10 μl of a test solution containing a UCN-1028D derivative was added to 250 μl of a solution containing 2.5 μmoles of magnesium acetate, 50 μg of Histone Type II S (manufactured by Sigma Co., Ltd.), 20 μg of phosphatidyl serine, 0.8 μg of diolein, 25 nmoles of CaCl2, 5 μg of crude enzyme (partially purified from rat brain according to the method of Kikkawa, et al.) and 5 μmoles of Tris-hydrochloride buffer (pH 7.5), followed by incubation at 30° C. for 3 minutes. Then, phosphorylation was initiated by addition of 1.25 nmoles of [γ-^32 P]ATP (5 to 10×10^3 cpm/nmole), followed by incubation at 30° C. for 3 minutes The reaction was stopped by adding 25% trichloroacetic acid (TCA), and the reaction solution was filtered through a cellulose acetate membrane (pore size: 0.45 μm) (manufactured by Toyo Filter Paper Co., Ltd.). After the membrane was washed four times with 5% TCA, radioactivity remaining on the membrane was measured. As a control, the same procedure as above was repeated without addition of the test solution and radioactivity was likewise measured. The concentration of the test solution showing 50% inhibition as compared with the control was expressed as IC50.

BALB 3T3/H-ras = experiment: Anti-tumor activity: growth inhibition of BALB 3T3 cells transformed with H-ras (Giemsa staining); format: cell-based; conditions: Mus musculus, BALB/3T3, 72 h, read-out: IC50 BALB 3T3/H-ras Inhibitory Activity
Description: The anti-tumor activity was determined using BALB 3T3 cells transformed with the carcinogenic gene H-ras (hereafter referred to as BALB 3T3/H-ras).
BALB 3T3/H-ras cells were suspended in a medium comprising DME medium (manufactured by Nissui Pharmaceutical Co., Ltd.) and 10% fetal calf serum (hereafter referred to as medium A) to a concentration of 3.0×10^4 /cells ml. The cell suspension thus prepared was put into wells of a 96-well microtiter plate in an amount of 0.1 ml per well. After culturing at 37° C. for 20 hours in a CO2 -incubator, 0.1 ml each of a test solution appropriately diluted with medium A was added to each well. The cells were further cultured at 37° C. for 72 hours in the CO2 -incubator and the culture supernatant was removed. After being washed once with physiological saline, the residue was treated with 0.1 ml of methanol for 10 minutes to fix the cells. Thereafter, the cells were stained with 0.1 ml of Giemsa staining solution [Giemsa staining stock solution (Merck Art 9204; manufactured by Merck Inc.) : physiological saline=1 : 10] for 5 minutes. After the staining solution was removed, the residue was washed once with 0.2 ml of water. The pigment was extracted with 0.2 ml of 0.1 N hydrochloric acid and the absorbance at 620 nm was measured with a microplate reader. By comparing the absorbance of untreated cells with those of the cells treated with the test compound at known concentrations, the concentration of the test compound at which the growth of the cells is inhibited by 50% (IC50) was calculated.

SMILES | IC50 Protein Kinase C Inhibitory Activity (Protein Kinase C) [µg/mL] | IC50 (BALB 3T3/H-ras) [µg/mL] | IC50 (BALB 3T3/H-ras; growth inhibition, 72 hours, 37° C., Giemsa staining, absorbance at 620 nm) [µg/mL]
COC(=O)O[C@H](C)Cc1c(OC)c(=O)c2c(O)cc(OC)c3c4c(OC)cc(O)c5c(=O)c(OC)c(C[C@@H](C)OC(=O)OC)c(c1c23)c54 [Compound 36, 14,17-bis-O-methoxycarbonyl UCN-1028D] | 0.29 (≈ 0.435 µM) | 0.13 (≈ 0.195 µM) | 
COc1ccc(C(=O)O[C@H](C)Cc2c(OC)c(=O)c3c(O)cc(OC)c4c5c(OC)cc(O)c6c(=O)c(OC)c(C[C@@H](C)OC(=O)c7ccc(OC)cc7)c(c2c34)c65)cc1 [Compound 27, 14,17-bis-O-p-methoxybenzoyl UCN-1028D] | 0.05 (≈ 0.0611 µM) | 0.026 (≈ 0.0318 µM) | 
CCCNC(=O)O[C@H](C)Cc1c(OC)c(=O)c2c(O)cc(OC)c3c4c(OC)cc(O)c5c(=O)c(OC)c(C[C@@H](C)OC(=O)NCCC)c(c1c23)c54 [Compound 41, 14,17-bis-O-propylaminocarbonyl UCN-1028D] | 0.94 (≈ 1.3 µM) | 0.68 (≈ 0.943 µM) | 
COc1c(C[C@@H](C)OC(=O)Nc2ccccc2)c2c3c(C[C@@H](C)OC(=O)Nc4ccccc4)c(OC)c(=O)c4c(O)cc(OC)c(c5c(OC)cc(O)c(c1=O)c52)c43 [Compound 42, 14,17-bis-O-phenylaminocarbonyl UCN-1028D] | 0.021 (≈ 0.0266 µM) | 0.075 (≈ 0.0951 µM) | 
COc1c(C[C@@H](C)OC(=O)c2ccc(OC(C)=O)cc2)c2c3c(C[C@@H](C)OC(=O)c4ccc(OC(C)=O)cc4)c(OC)c(=O)c4c(O)cc(OC)c(c5c(OC)cc(O)c(c1=O)c52)c43 [Compound 24, 14,17-bis-O-p-acetoxybenzoyl UCN-1028D] | 0.082 (≈ 0.0937 µM) | 0.048 (≈ 0.0549 µM) | 
COc1c(C[C@@H](C)OC(=O)[C@@H]2CCCN2)c2c3c(C[C@@H](C)OC(=O)[C@@H]4CCCN4)c(OC)c(=O)c4c(O)cc(OC)c(c5c(OC)cc(O)c(c1=O)c52)c43 [Compound 20, 14,17-di-O-L-prolyl UCN-1028D bistrifluoroacetate] | 0.33 (≈ 0.443 µM) | 3.2 (≈ 4.3 µM) | 
COc1c(C[C@@H](C)OC(=O)CCc2ccccc2)c2c3c(C[C@@H](C)OC(=O)CCc4ccccc4)c(OC)c(=O)c4c(O)cc(OC)c(c5c(OC)cc(O)c(c1=O)c52)c43 [Compound 10, 14,17-bis-O-3-phenylpropionyl UCN-1028D] | 0.045 (≈ 0.0552 µM) | 0.95 (≈ 1.17 µM) | 
CN[C@@H](Cc1ccccc1)C(=O)O[C@H](C)Cc1c(OC)c(=O)c2c(O)cc(OC)c3c4c(OC)cc(O)c5c(=O)c(OC)c(C[C@@H](C)OC(=O)[C@H](Cc6ccccc6)NC)c(c1c23)c54 [Compound 19, 14,17-bis-O-N-methyl-L-phenylalanyl UCN-1028D bistrifluoroacetate] | 0.1 (≈ 0.115 µM) | 0.35 (≈ 0.401 µM) | 
COc1c(C[C@@H](C)OC(=O)[C@H](N)Cc2ccccc2)c2c3c(C[C@@H](C)OC(=O)[C@H](N)Cc4ccccc4)c(OC)c(=O)c4c(O)cc(OC)c(c5c(OC)cc(O)c(c1=O)c52)c43 [Compound 18, 14,17-di-O-D-phenylalanyl UCN-1028D bistrifluoroacetate] | 0.16 (≈ 0.189 µM) | 0.84 (≈ 0.994 µM) | 
CC[C@H](C)[C@H](N)C(=O)O[C@H](C)Cc1c(OC)c(=O)c2c(O)cc(OC)c3c4c(OC)cc(O)c5c(=O)c(OC)c(C[C@@H](C)OC(=O)[C@@H](N)[C@@H](C)CC)c(c1c23)c54 [Compound 15, 14,17-di-O-L-isoleucyl UCN-1028D bistrifluoroacetate] | 0.15 (≈ 0.193 µM) | 0.28 (≈ 0.36 µM) | 
COc1c(C[C@@H](C)OC(=O)c2ccccc2)c2c3c(C[C@@H](C)OC(=O)c4ccccc4)c(OC)c(=O)c4c(O)cc(OC)c(c5c(OC)cc(O)c(c1=O)c52)c43 [Compound 44, 14,17-di-O-benzoyl UCN-1028 iso-D] | 0.025 (≈ 0.0329 µM) |  | 0.52 (≈ 0.685 µM)
CCCCCCC(=O)O[C@H](C)Cc1c(OC)c(=O)c2c(O)cc(OC)c3c4c(OC)cc(O)c5c(=O)c(OC)c(C[C@@H](C)OC(=O)CCCCCC)c(c1c23)c54 [Compound 4, 14,17-di-O-heptanoyl UCN-1028D] | 0.03 (≈ 0.0387 µM) | 0.52 (≈ 0.671 µM) | 
COc1c(C[C@@H](C)OC(=O)c2ccc3ccccc3c2)c2c3c(C[C@@H](C)OC(=O)c4ccc5ccccc5c4)c(OC)c(=O)c4c(O)cc(OC)c(c5c(OC)cc(O)c(c1=O)c52)c43 [Compound 32, 14,17-di-O-2-naphthoyl UCN-1028D] | 0.1 (≈ 0.116 µM) | 1.2 (≈ 1.4 µM) | 
COc1c(C[C@@H](C)OC(=O)[C@@H](N)Cc2ccccc2)c2c3c(C[C@@H](C)OC(=O)[C@@H](N)Cc4ccccc4)c(OC)c(=O)c4c(O)cc(OC)c(c5c(OC)cc(O)c(c1=O)c52)c43 [Compound 17, 14,17-di-O-L-phenylalanyl UCN-1028D bistrifluoroacetate] | 0.088 (≈ 0.104 µM) | 0.35 (≈ 0.414 µM) | 
COC(=O)c1ccc(C(=O)O[C@H](C)Cc2c(OC)c(=O)c3c(O)cc(OC)c4c5c(OC)cc(O)c6c(=O)c(OC)c(C[C@@H](C)OC(=O)c7ccc(C(=O)OC)cc7)c(c2c34)c65)cc1 [Compound 28, 14,17-bis-O-p-methoxycarbonylbenzoyl UCN-1028D] | 0.084 (≈ 0.096 µM) | 0.068 (≈ 0.0777 µM) | 
COc1c(C[C@@H](C)OC(=O)c2ccc(C#N)cc2)c2c3c(C[C@@H](C)OC(=O)c4ccc(C#N)cc4)c(OC)c(=O)c4c(O)cc(OC)c(c5c(OC)cc(O)c(c1=O)c52)c43 [Compound 25, 14,17-bis-O-p-cyanobenzoyl UCN-1028D] | 0.05 (≈ 0.0618 µM) | 0.042 (≈ 0.0519 µM) | 
CCCCCCCCCCCC(=O)O[C@H](C)Cc1c(OC)c(=O)c2c(O)cc(OC)c3c4c(OC)cc(O)c5c(=O)c(OC)c(C[C@@H](C)OC(=O)CCCCCCCCCCC)c(c1c23)c54 [Compound 6, 14,17-di-O-dodecanoyl UCN-1028D] | 0.15 (≈ 0.164 µM) | 4.8 (≈ 5.24 µM) | 
CCCC(=O)O[C@H](C)Cc1c(OC)c(=O)c2c(O)cc(OC)c3c4c(OC)cc(O)c5c(=O)c(OC)c(C[C@@H](C)OC(=O)CCC)c(c1c23)c54 [Compound 2, 14,17-di-O-butyryl UCN-1028D] | 0.14 (≈ 0.203 µM) | 0.023 (≈ 0.0333 µM) | 
COc1c(C[C@@H](C)OC(=O)CCCCCN)c2c3c(C[C@@H](C)OC(=O)CCCCCN)c(OC)c(=O)c4c(O)cc(OC)c(c5c(OC)cc(O)c(c1=O)c52)c43 [Compound 21, 14,17-bis-O-6-aminohexanoyl UCN-1028D bis-trifluoroacetate] | 0.08 (≈ 0.103 µM) | 2.5 (≈ 3.22 µM) | 
CCCCCCCCCC(=O)O[C@H](C)Cc1c(OC)c(=O)c2c(O)cc(OC)c3c4c(OC)cc(O)c5c(=O)c(OC)c(C[C@@H](C)OC(=O)CCCCCCCCC)c(c1c23)c54 [Compound 5, 14,17-di-O-decanoyl UCN-1028D] | 0.068 (≈ 0.0792 µM) | 7 (≈ 8.15 µM) | 
COc1c(C[C@@H](C)OC(=O)c2ccc(O)cc2)c2c3c(C[C@@H](C)OC(=O)c4ccc(O)cc4)c(OC)c(=O)c4c(O)cc(OC)c(c5c(OC)cc(O)c(c1=O)c52)c43 [Compound 26, 14,17-bis-O-p-hydroxybenzoyl UCN-1028D] | 0.084 (≈ 0.106 µM) | 0.13 (≈ 0.164 µM) | 
COc1c(C[C@@H](C)OC(=O)COc2ccccc2)c2c3c(C[C@@H](C)OC(=O)COc4ccccc4)c(OC)c(=O)c4c(O)cc(OC)c(c5c(OC)cc(O)c(c1=O)c52)c43 [Compound 13, 14,17-bis-O-phenyloxyacetyl UCN-1028D] | 0.08 (≈ 0.0977 µM) | 0.03 (≈ 0.0366 µM) | 
